# Data reported in PMC6381024, “Probing Anti-inflammatory Properties Independent of NF-κB Through Conformational Constraint of Peptide-Based Interleukin-1 Receptor Biased Ligands” (Frontiers in Chemistry, 2019).
# Columns and labels:
# ROCK2 = test: IL-1β-induced ROCK2 phosphorylation, Western blot in RAW Blue cells; type: cell-based; set-up: key to Western Blot ROCK2 (heatmap grade of inhibition): 0: No effect; No effect 01234 Maximum inhibition/efficacy; No effect 01234 Maximum inhibition/efficacy; No effect 01234 Maximum inhibition/efficacy; 4: Maximum inhibition/efficacy; conditions: for Western Blot ROCK2 (heatmap grade of inhibition): RAW Blue cells, peptide 10^-6 M or Kineret 1.0 mg/mL 30 min, then IL-1β 100 ng/mL 15 min
# Description: RAW Blue cells (Invivogen) were grown under standard conditions (37°C, 5% CO2) and maintained under passage number 15. Cells were equilibrated with 1, 5, or 6 (10^−6M) or Kineret (1.0 mg/mL) for 30 min, after which time they were exposed to IL-1β (100 ng/mL) for 15 min. Cells were harvested and lysed on ice for 30 min using a radioimmunoprecipitation assay buffer (Cell Signaling) supplemented with 1 mM phenylmethylsulfonyl fluoride (PMSF) and cOmplete™ EDTA-free protease inhibitor cocktail (Roche, Mannheim, Germany, prepared according to the manufacturer's instructions). Protein concentrations were determined using a Bradford protein assay (Bio-Rad) on 96-well plates with a microplate reader (EnVision Multilabel reader) measuring OD at […]. Bovine serum albumin serial dilutions were used to generate a standard curve. Lysates were then mixed with 4X reducing sample buffer (Bio-Rad).
# Lysates were loaded (30 μg protein per well) in a 5% acrylamide stacking gel, and samples were electrophoresed in a 12% acrylamide resolving gel for 1.5 h at 120 V, followed by a 1 h transfer onto polyvinylidene difluoride (PDVF) membranes at 100 V. Membranes were blocked and incubated with 1:1,000 dilution of primary antibody and 1:20,000 dilution of secondary antibodies according to the manufacturer's instructions. Antibodies used were for phospho-p38 MAPK (Cell Signaling, #9211), p38 MAPK (Cell Signaling, #9212), SAPK/JNK (Cell Signaling, #9252), phospho-SAPK/JNK (Cell Signaling, #9251), ROCK2 (Thermo Fisher Scientific PA5-21131), phospho-ROCK2 (Thermo Fisher Scientific PA5-34895), and goat anti-rabbit conjugated to horseradish peroxidase (Abcam, ab6721). Membranes were imaged using an Amersham Imager 600 (GE Healthcare) using Clarity Western ECL Substrate (Bio-Rad). The intensity of protein bands was quantified using ImageJ and standardized using total (phosphorylated + non-phosphorylated) protein content. Data are representative of three independent experiments.
# Figure 7 The effects of peptides 1, 5, and 6 on IL-1β-induced phosphorylation of JNK, ROCK2, and p38. Graphical representations of band density analysis of Western Blots, sorted into columns based on protein of interest (JNK, ROCK2, or p38) and rows by peptide configuration [(3R-) or (3S)]. RAW-blue cells were pretreated with peptides 1, 5, 6, Kineret, or vehicle for 30 min and then stimulated with IL-1β for 15 min. Images of representative Western Blots can be found in the Supplementary Figure 1. Results shown are the average of 3 independent experiments: ^*p < 0.05, ^**p < 0.01, ^***p < 0.001, ^****p < 0.0001 compared to group treated only with IL-1β. Treatment groups that are not labeled with asterisks are statistically non-significant compared to group treated only with IL-1β.
# IL-1β = test: qPCR of IL-1β-induced IL-1β expression in HEK-Blue IL-33/IL-1β cells; type: cell-based, human; set-up: key to qPCR IL-1β (heatmap grade of inhibition): 0: No effect; No effect 01234 Maximum inhibition/efficacy; No effect 01234 Maximum inhibition/efficacy; No effect 01234 Maximum inhibition/efficacy; 4: Maximum inhibition/efficacy; conditions: for qPCR IL-1β (heatmap grade of inhibition): HEK-Blue cells, peptide 10^-6 M or Kineret 1.0 mg/mL 30 min, then IL-1β 100 ng/mL 4 h (legend: overnight); for Suppression of IL-1β transcription: HEK blue cells, 10^-6 M pre-treatment, IL-1β stimulation
# Description: HEK-Blue IL-33/IL-1β cells were purchased from InvivoGen (San Diego, CA) and used at passages under 15. HEK-Blue cells were cultured in DMEM growth medium supplemented with 10% serum, 50 U/mL penicillin, […] streptomycin, […] zeocin, and […] hygromycin. Cells were grown in regular conditions (37°C, 5% CO2). Cells were serum starved overnight and treated with 100 ng/mL IL-1β for 4 h. Cells were pre-incubated for 30 min with peptides 1, 5, or 6 (10^−6M) or Kineret (1.0 mg/mL) prior to the experiments to reach equilibrium (n = 4 each treatment). Cells were harvested and incubated for 5 min in RIBOzol (AMRESCO). RNA was extracted according to manufacturer's protocol and RNA concentration and integrity were measured with a NanoDrop 1,000 spectrophotometer. A total of 500 ng RNA was used to synthetize cDNA using iScript Reverse Transcription SuperMix (Bio-Rad, Hercules, CA). Quantitative gene expression analysis was performed on Stratagene MXPro3000 (Stratagene) with SYBR Green Master Mix (Bio-Rad). Gene expression levels were normalized to 18S universal primer (Ambion Life Technology, Burlington ON, Canada). Genes analyzed include IL1β, IL6, and PTGHS2 [Prostaglandin H synthetase 2 or cyclooxygenase-2 (COX-2)]. Data are representative of 3 experiments (each with n = 4 per treatment group).
# Figure 8 The effects of peptides 1, 5, and 6 on the expression of pro-inflammatory genes. HEK-Blue cells were pre-treated with peptides 1, 5, and 6 as above and stimulated with IL-1β overnight. qPCR was performed on cell lysates using 18S rRNA as internal control. Graphs are sorted in columns by gene of interest (COX-2, IL-1β, or IL-6) and rows by peptide configuration [(3R) or (3S)]. Results are representative of an average of 3 independent experiments (each with n = 4 per treatment group) and are expressed as a fold-change of the non-stimulated control: ^*p < 0.05, ^**p < 0.01, ^***p < 0.001, ^****p < 0.0001 compared to group treated only with IL-1β. Treatment groups that are not labeled with asterisks are statistically non-significant compared to group treated only with IL-1β.
# IL-1R = test: Radioligand displacement of [125I]-peptide 1 in RAW-Blue macrophage cells; type: binding; conditions: for Percentage of displacement of [125I]-1, relative to unlabeled peptide 1, ±SEM: 100 μM cold peptide pre-incubated 20 min, then 600 nM [125I]-peptide 1 for 2 h at 37°C, gamma counter, mean ± SEM, three independent experiments
# Description: Displacement of radiolabeled peptide 1 was performed as described previously (Quiniou et al., [2008]). Briefly, RAW-Blue macrophage cells (InVivogen; San Diego, CA) were pre-incubated for 20 min with 100 μM of non-radiolabeled (“cold”) peptide 1, 5, or 6 followed by incubation for 2 h at 37°C with [^125I]-peptide 1 at 600 nM concentration to ensure maximal specific binding (Quiniou et al., [2008]). Cells were washed four times with PBS buffer and lysed with 0.1 N NaOH/0.1% Triton X-100. Bound radioactivity was measured on cell lysates with a Hidex AMG gamma counter (Hidex; Turku Finland). Data are representative of three independent experiments.
# Peptide 1 is known to bind to IL-1R (Quiniou et al., [2008]). To determine if the Agl and Hgl derivatives occupied the same binding site as peptide 1, a radio-ligand displacement assay was used to determine the extent to which peptides 5 and 6 displaced radiolabeled 1.
Substance,Western Blot ROCK2 (heatmap grade of inhibition) (ROCK2),qPCR IL-1β (heatmap grade of inhibition) (IL-1β),"Percentage of displacement of [125I]-1, relative to unlabeled peptide 1, ±SEM (IL-1R) [%]","Capacity to displace [125I]-1 compared to cold unlabeled peptide 1 (IL-1R; 100 μM cold peptide, 600 nM [125I]-peptide 1)",Suppression of IL-1β transcription (IL-1β),"Inhibition of IL-1β-induced ROCK2 phosphorylation (ROCK2; RAW-blue cells, 10^-6 M, 30 min, then IL-1β 15 min)"
Kineret: FDA-approved recombinant IL-1 receptor antagonist,4,4,–,–,–,–
H-D-Arg-D-Tyr-(S)-Agl-D-Val-D-Glu-D-Leu-D-Ala-NH2 [[(3S)-Agl^3]-1],0,4,106.6 ± 12.39,–,–,–
"H-D-Arg-D-Tyr-(3R,4R)-Hgl-D-Val-D-Glu-D-Leu-D-Ala-NH2 [[(3R,4R)-Hgl^3]-1]",4,4,104.6 ± 6.826,–,–,–
"H-D-Arg-D-Tyr-(3R,4S)-Hgl-D-Val-D-Glu-D-Leu-D-Ala-NH2 [[(3R,4S)-Hgl^3]-1]",4,4,32.13 ± 16.94,significantly lower (p = 0.0011) ability to compete with radiolabeled peptide 1,–,–
H-D-Arg-D-Tyr-(S)-Agl-(S)-Val-D-Glu-D-Leu-D-Ala-NH2 [[(3S)-Agl^3-(S)-Val^4]-1],3,1,102.7 ± 8.637,–,ability to suppress the transcription of all three genes was lost,–
H-D-Arg-D-Tyr-(R)-Agl-(S)-Val-D-Glu-D-Leu-D-Ala-NH2 [[(3R)-Agl^3-(S)-Val^4]-1],2,1,120.7 ± 15.69,–,ability to suppress the transcription of all three genes was lost,–
H-D-Arg-D-Tyr-(R)-Agl-D-Val-D-Glu-D-Leu-D-Ala-NH2 [[(3R)-Agl^3]-1],0,4,83.55 ± 9.02,–,–,–
"H-D-Arg-D-Tyr-(3S,4R)-Hgl-D-Val-D-Glu-D-Leu-D-Ala-NH2 [[(3S,4R)-Hgl^3]-1]",3,4,78.64 ± 21.22,–,–,–
"H-D-Arg-D-Tyr-(3R,4R)-Hgl-(S)-Val-D-Glu-D-Leu-D-Ala-NH2 [[(3R,4R)-Hgl^3-(S)-Val^4]-1]",4,3,82.12 ± 14.12,–,–,–
H-D-Arg-D-Tyr-D-Thr-D-Val-D-Glu-D-Leu-D-Ala-NH2 [Peptide 1],4,4,–,–,strong suppression of transcription of all three genes,inhibited the effects of all three kinases
"H-D-Arg-D-Tyr-(3R,4S)-Hgl-(S)-Val-D-Glu-D-Leu-D-Ala-NH2 [[(3R,4S)-Hgl^3-(S)-Val^4]-1]",2,4,58.63 ± 13.45,–,–,–
